Measured values published in patent publication US12274264B2, “Piperonylic acid derivative and application thereof” (SHENYANG SINOCHEM AGROCHEMICALS R&D CO., LTD., priority 2019, dated 2025).
Read-outs that look alike come from different tables or passages of the source.

Key:
[1] = tested on: western flower thrips nymphs; assay: Determination of activity against western flower thrips nymphs (sprayed kidney bean leaves, mortality after 72 hours); assay type: in vivo; conditions: Frankliniella occidentalis, read-out: Mortality (%) against Western Flower Thrips Nymphs
Method: (§1) According to the solubility of test compounds, the compounds are dissolved with acetone or dimethyl sulfoxide, and then diluted with 0.1% Tween 80 solution to form a required concentration of 50 ml test liquid. The content of the acetone or the dimethyl sulfoxide in the total solution is not more than 10%.
Fresh kidney bean leaves cultured in the glasshouse were selected and uniformly sprayed with 1 ml of the test liquid by using a handheld Airbrush. The leaves were dried naturally and placed in a test tube. Fifteen tidy and healthy western flower thrips nymphs were put into the leaves. Three replicates were set for each treatment. The water treatment was set as control check. After the treatment, the treated tube were placed in a chamber of 24° C., 60%-70% relative humidity and day light. After 72 hours, the number of surviving insects was investigated, and the mortality was calculated.

[2] = tested on: Tetranychus cinnabarinus adults; assay: Determination of acaricidal activity (spray on bean plant leaves with adult spider mites, mortality after 72 hours); assay type: in vivo; conditions: read-out: Mortality (%) against Tetranychus Cinnabarinus Adult
Method: as §1
The adult spider mites were put into two true leaves of bean plants. After the number of mites was investigated, the solution of certain concentrations of test compounds was sprayed by using a handheld Airbrush. Three replicates were set for each treatment. Then the leaves were maintained in a standard observation room. After 72 hours, the number of surviving mites was investigated, and the mortality rate was calculated. Compounds I-41, KC3, KC4 and MC were selected for parallel determination of activity against Tetranychus cinnabarinus adults.

[3] = tested on: Tribolium confusum adults; assay: Determination of Tribolium confusum adults (treated feeding bran, 72 h); assay type: in vivo; conditions: 72 h, read-out: Mortality (%) against Tribolium Confusum Adults
Method: as §1
The test liquid was prepared in the order from low dose to high dose according to the test design. Then, the liquid of different concentrations was added to feeding bran and uniformly stirred, and dried in the shade. Then, the resulting feeding bran was collected in a paper cup. Fifty Tribolium confusum adults with consistent size were put in the paper cup. Three replicates were set for each treatment. Control check was set. The treated test materials were put in an observation room under controlled conditions. After 72 h, the number of dead and surviving adults was investigated.

Spodoptera litura = conditions: concentration of 1 ppm; cited from earlier work
Plutella xylostella [4] = conditions: concentration of 1 ppm; cited from earlier work
Plutella xylostella [5] = conditions: concentration of 200 ppm; cited from earlier work
Spodoptera littoralis = conditions: concentration of 200 ppm; cited from earlier work
Tetranychus urticae koch = conditions: concentration of 200 ppm; cited from earlier work
trips tabaci = conditions: concentration of 200 ppm; cited from earlier work

Row | Structure (SMILES) | mortality at 10 µg/mL ([1]; 72 h) [%] | mortality at 100 µg/mL ([1]; 72 h) [%] | mortality at 10 µg/mL ([2]; 72 h) [%] | mortality at 100 µg/mL ([2]; 72 h) [%] | mortality at 600 µg/mL ([2]; 72 h) [%] | mortality at 5 µg/mL [3] [%] | mortality at 20 µg/mL [3] [%] | activities against Spodoptera litura (Spodoptera litura) | activities against Plutella xylostella (Plutella xylostella [4]) | mortality at 10 µg/mL ([1]; 10 mg/L, after 72 hours) [%] | mortality at 100 µg/mL ([1]; 100 mg/L, after 72 hours) [%] | mortality at 10 µg/mL ([2]; 10 mg/L, after 72 hours) [%] | mortality at 100 µg/mL ([2]; 100 mg/L, after 72 hours) [%] | mortality at 600 µg/mL ([2]; 600 mg/L, after 72 hours) [%] | activities against Plutella xylostella (Plutella xylostella [5]) | activities against Spodoptera littoralis (Spodoptera littoralis) | activities against Tetranychus urticae koch (Tetranychus urticae koch) | activities against trips tabaci (trips tabaci)
1 | CN(C(=O)c1ccccc1)c1cccc(C(=O)Nc2c(Br)cc(C(F)(C(F)(F)F)C(F)(F)F)cc2C(F)(F)F)c1F [KC3, Broflanilide] | 33 | 60 | 0 | 0 | 0 | 69 | 80 | greater than or equal to 70% | greater than or equal to 70% |  |  |  |  |  |  |  |  | 
2 | O=C(Nc1cccc(C(=O)Nc2c(Br)cc(C(F)(C(F)(F)F)C(F)(F)F)cc2OC(F)F)c1F)c1ccccc1 [KC4] |  |  |  |  |  |  |  |  |  | 37 | 52 | 0 | 0 | 0 | greater than or equal to 80% | greater than or equal to 80% | greater than or equal to 80% | greater than or equal to 80%
